{"source": "paper PMC12281424", "about": "“A Rac-specific competitive inhibitor of guanine nucleotide binding reduces metastasis in triple-negative breast cancer” (Cell Reports Medicine, 2025)", "key": {"CHK2(R145W)(h)": {"biological_target": "CHK2(R145W)(h) (Homo sapiens, UniProt O96017, R145W)", "test": "Kinase Profiler", "type": "biochemical", "quoted_text": "(§1) The kinase profiler was performed by the company Eurofins (Discovery, Panlab and Cerep)."}, "[1]": {"biological_target": "Protein Tyrosine Kinase, LCK (Homo sapiens, UniProt P06239)", "test": "Safety screen", "type": "biochemical", "quoted_text": "as §1"}, "OSR1(h)": {"biological_target": "OSR1(h) (Homo sapiens, UniProt O95747)", "test": "Kinase Profiler", "type": "biochemical", "quoted_text": "(§2) Blood cell counts, kinase profiler, safety screen, bacterial cytotoxicity, Ames, micronucleus assays were performed by the company Eurofins (France). The kinase profiler was performed by the company Eurofins (Discovery, Panlab and Cerep)."}, "CHO": {"tested_on": "CHO", "test": "Micronucleus assay (HCA)", "type": "cell-based", "description": "Data S4. Micronucleus assay-A41.\nTest Scored % Cytotox % Cytotox % Micronucleated t-Test Test\nConcentr. Cells Index CBPI NumbersCell Cells p-value Result […]\nMicronucleus (CHO - S9, HCA)"}, "PI3K (p110a/p85a)(m)": {"biological_target": "PI3K (p110a/p85a)(m) (Mus musculus, UniProt P42337)", "test": "Kinase Profiler", "type": "biochemical", "quoted_text": "as §2"}, "PI3K (p110b/p85a)(h)": {"biological_target": "PI3K (p110b/p85a)(h) (Homo sapiens, UniProt P42338)", "test": "Kinase Profiler", "type": "biochemical", "quoted_text": "as §2"}, "[2]": {"biological_target": "Peptidase, Angiotensin Converting Enzyme (Oryctolagus cuniculus, UniProt P12822)", "test": "Safety screen", "type": "biochemical, rabbit", "quoted_text": "(§3) Blood cell counts, kinase profiler, safety screen, bacterial cytotoxicity, Ames, micronucleus assays were performed by the company Eurofins (France)."}, "Glucocorticoid": {"biological_target": "Glucocorticoid (Homo sapiens, UniProt P04150)", "test": "Safety screen", "type": "binding", "quoted_text": "as §3"}, "CSK(h)": {"biological_target": "CSK(h) (Homo sapiens, UniProt P41240)", "test": "Kinase Profiler", "type": "biochemical", "quoted_text": "as §1"}, "IRR(h)": {"biological_target": "IRR(h) (Homo sapiens, UniProt P14616)", "test": "Kinase Profiler", "type": "biochemical", "quoted_text": "as §2"}, "Plk4(h)": {"biological_target": "Plk4(h) (Homo sapiens, UniProt O00444)", "sequence (O00444 whole entry)": "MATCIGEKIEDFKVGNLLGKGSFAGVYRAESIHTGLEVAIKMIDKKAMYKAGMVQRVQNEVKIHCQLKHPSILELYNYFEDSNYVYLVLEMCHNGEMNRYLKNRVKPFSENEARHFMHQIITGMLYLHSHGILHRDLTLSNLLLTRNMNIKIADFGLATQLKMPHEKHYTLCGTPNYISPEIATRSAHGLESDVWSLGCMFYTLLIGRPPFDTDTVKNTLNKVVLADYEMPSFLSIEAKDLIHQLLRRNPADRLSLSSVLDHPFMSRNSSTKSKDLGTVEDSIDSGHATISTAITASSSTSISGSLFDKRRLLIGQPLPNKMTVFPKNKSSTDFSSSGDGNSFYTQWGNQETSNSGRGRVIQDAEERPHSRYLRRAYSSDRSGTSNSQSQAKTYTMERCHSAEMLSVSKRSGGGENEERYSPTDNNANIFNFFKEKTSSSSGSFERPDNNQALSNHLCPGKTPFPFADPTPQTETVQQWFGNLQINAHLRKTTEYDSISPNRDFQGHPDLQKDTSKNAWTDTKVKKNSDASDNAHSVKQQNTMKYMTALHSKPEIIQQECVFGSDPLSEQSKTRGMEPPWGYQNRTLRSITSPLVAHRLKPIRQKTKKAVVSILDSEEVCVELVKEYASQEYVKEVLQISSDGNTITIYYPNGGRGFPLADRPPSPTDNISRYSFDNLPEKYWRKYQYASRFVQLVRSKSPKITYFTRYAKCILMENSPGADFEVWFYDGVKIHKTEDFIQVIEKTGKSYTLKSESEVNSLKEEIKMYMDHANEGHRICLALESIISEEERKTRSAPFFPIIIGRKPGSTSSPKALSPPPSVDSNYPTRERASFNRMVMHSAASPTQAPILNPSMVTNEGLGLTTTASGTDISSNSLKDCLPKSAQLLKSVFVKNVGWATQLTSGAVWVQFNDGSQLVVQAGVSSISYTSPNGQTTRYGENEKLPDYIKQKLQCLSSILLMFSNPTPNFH", "test": "Kinase Profiler", "type": "biochemical", "quoted_text": "as §2"}, "STK32A(h)": {"biological_target": "STK32A(h) (Homo sapiens, UniProt Q8WU08)", "test": "Kinase Profiler", "type": "biochemical", "quoted_text": "as §1"}, "PhKγ2(h)": {"biological_target": "PhKγ2(h) (Homo sapiens, UniProt P15735)", "sequence (P15735 whole entry)": "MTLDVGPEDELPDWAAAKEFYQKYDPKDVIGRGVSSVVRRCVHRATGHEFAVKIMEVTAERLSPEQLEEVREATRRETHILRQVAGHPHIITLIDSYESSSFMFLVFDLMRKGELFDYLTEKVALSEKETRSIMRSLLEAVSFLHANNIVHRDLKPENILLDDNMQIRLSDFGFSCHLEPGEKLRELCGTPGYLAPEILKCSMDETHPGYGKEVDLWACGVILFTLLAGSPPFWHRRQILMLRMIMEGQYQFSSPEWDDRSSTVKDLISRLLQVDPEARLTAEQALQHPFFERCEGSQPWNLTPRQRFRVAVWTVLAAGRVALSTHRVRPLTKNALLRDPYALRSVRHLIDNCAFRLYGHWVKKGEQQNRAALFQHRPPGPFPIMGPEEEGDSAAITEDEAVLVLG", "test": "Kinase Profiler", "type": "biochemical", "quoted_text": "as §2"}, "Blk(h)": {"biological_target": "Blk(h) (Homo sapiens, UniProt P51451)", "test": "Kinase Profiler", "type": "biochemical", "quoted_text": "as §2"}, "JAK1(h)": {"biological_target": "JAK1(h) (Homo sapiens, UniProt P23458)", "test": "Kinase Profiler", "type": "biochemical", "quoted_text": "as §1"}, "CDK1/cyclinB(h)": {"biological_target": "CDK1/cyclinB(h) (Homo sapiens, UniProt P06493)", "test": "Kinase Profiler", "type": "biochemical", "quoted_text": "as §2"}, "Rsk4(h)": {"biological_target": "Rsk4(h) (Homo sapiens, UniProt Q9UK32)", "test": "Kinase Profiler", "type": "biochemical", "quoted_text": "as §1"}, "[3]": {"biological_target": "Serotonin (5-Hydroxytryptamine) 5-HT2C (Homo sapiens, UniProt P28335)", "test": "Safety screen", "type": "binding", "quoted_text": "as §3"}, "JAK2(h)": {"biological_target": "JAK2(h) (Homo sapiens, UniProt O60674)", "test": "Kinase Profiler", "type": "biochemical", "quoted_text": "as §1"}, "PDHK2(h)": {"biological_target": "PDHK2(h) (Homo sapiens, UniProt Q15119)", "test": "Kinase Profiler", "type": "biochemical", "quoted_text": "as §2"}, "WNK3(h)": {"biological_target": "WNK3(h) (Homo sapiens, UniProt Q9BYP7)", "sequence (Q9BYP7 whole entry)": "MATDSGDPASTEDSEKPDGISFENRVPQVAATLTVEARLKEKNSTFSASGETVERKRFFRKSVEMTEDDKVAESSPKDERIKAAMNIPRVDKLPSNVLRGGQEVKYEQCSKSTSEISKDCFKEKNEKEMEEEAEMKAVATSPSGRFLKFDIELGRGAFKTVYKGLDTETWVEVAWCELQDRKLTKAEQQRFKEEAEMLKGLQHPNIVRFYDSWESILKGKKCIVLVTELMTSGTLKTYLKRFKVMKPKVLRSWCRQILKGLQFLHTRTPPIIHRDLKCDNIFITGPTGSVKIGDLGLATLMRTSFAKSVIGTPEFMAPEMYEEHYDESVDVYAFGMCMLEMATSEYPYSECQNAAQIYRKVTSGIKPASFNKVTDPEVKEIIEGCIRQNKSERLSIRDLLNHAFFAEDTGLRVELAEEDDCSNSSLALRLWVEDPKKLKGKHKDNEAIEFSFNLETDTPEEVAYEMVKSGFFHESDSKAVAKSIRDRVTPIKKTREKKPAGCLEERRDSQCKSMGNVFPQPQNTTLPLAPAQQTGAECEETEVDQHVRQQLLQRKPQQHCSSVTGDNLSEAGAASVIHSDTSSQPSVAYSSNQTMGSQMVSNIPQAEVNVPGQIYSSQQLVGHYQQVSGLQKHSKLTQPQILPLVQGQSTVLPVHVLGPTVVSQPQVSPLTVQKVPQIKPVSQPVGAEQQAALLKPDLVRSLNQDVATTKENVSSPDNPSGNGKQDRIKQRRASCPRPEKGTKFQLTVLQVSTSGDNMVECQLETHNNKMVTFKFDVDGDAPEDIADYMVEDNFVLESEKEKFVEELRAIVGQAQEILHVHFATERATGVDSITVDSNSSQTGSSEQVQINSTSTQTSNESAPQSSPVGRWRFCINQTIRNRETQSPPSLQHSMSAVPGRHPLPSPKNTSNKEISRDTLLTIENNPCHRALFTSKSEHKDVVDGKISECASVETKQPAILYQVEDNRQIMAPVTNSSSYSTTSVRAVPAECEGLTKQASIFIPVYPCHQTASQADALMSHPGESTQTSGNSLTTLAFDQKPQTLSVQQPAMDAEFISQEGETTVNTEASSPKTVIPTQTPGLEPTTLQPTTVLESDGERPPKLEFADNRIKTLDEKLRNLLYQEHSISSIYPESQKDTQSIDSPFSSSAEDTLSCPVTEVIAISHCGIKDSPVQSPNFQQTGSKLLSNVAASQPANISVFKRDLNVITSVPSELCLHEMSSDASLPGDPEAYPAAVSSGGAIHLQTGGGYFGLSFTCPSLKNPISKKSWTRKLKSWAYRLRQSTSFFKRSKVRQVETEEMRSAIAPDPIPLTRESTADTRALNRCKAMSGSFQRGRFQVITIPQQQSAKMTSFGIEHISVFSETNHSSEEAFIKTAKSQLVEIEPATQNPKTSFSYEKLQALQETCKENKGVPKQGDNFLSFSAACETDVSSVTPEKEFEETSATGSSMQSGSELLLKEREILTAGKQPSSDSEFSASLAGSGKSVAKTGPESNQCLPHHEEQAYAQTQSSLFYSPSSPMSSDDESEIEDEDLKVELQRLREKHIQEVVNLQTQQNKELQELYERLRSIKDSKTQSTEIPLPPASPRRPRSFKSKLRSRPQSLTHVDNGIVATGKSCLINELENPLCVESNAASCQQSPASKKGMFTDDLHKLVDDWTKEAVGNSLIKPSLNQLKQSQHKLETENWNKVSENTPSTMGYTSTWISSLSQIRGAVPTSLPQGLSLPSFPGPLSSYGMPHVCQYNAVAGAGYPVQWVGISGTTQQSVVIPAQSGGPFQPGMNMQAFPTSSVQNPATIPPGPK", "test": "Kinase Profiler", "type": "biochemical", "quoted_text": "as §1"}, "EGFR(L861Q)(h)": {"biological_target": "EGFR(L861Q)(h) (Homo sapiens, UniProt P00533, L861Q)", "test": "Kinase Profiler", "type": "biochemical", "quoted_text": "as §1"}, "PKCμ(h)": {"biological_target": "PKCμ(h) (Homo sapiens, UniProt Q15139)", "test": "Kinase Profiler", "type": "biochemical", "quoted_text": "as §1"}, "Pim-3(h)": {"biological_target": "Pim-3(h) (Homo sapiens, UniProt Q86V86)", "test": "Kinase Profiler", "type": "biochemical", "quoted_text": "as §2"}, "CDK6/cyclinD3(h)": {"biological_target": "CDK6/cyclinD3(h) (Homo sapiens, UniProt Q00534)", "sequence (Q00534 whole entry)": "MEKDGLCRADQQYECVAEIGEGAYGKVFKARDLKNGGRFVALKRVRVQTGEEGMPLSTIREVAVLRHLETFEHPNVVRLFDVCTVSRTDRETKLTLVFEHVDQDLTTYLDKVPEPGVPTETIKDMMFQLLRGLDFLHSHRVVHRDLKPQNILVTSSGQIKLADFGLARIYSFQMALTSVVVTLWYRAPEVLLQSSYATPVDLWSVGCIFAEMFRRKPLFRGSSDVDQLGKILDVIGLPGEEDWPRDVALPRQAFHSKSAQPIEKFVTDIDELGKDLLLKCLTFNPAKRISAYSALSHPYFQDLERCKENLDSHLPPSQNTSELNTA", "sequence (P30281 whole entry partner)": "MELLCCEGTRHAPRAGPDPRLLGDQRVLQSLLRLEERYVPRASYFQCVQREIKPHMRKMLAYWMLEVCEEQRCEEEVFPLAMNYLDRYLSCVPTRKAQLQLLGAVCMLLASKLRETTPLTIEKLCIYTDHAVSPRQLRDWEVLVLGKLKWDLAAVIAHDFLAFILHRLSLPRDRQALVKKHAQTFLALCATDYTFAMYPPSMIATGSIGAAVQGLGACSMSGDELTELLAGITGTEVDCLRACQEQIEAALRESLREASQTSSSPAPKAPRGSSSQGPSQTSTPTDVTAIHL", "test": "Kinase Profiler", "type": "biochemical", "quoted_text": "as §2"}, "MKK3(h)": {"biological_target": "MKK3(h) (Homo sapiens, UniProt P46734)", "test": "Kinase Profiler", "type": "biochemical", "quoted_text": "as §1"}, "MLK2(h)": {"biological_target": "MLK2(h) (Homo sapiens, UniProt Q02779)", "test": "Kinase Profiler", "type": "biochemical", "quoted_text": "as §2"}, "TRB2(h)": {"biological_target": "TRB2(h) (Homo sapiens, UniProt Q92519)", "test": "Kinase Profiler", "type": "biochemical", "quoted_text": "as §1"}, "TrkC(h)": {"biological_target": "TrkC(h) (Homo sapiens, UniProt Q16288)", "test": "Kinase Profiler", "type": "biochemical", "quoted_text": "as §1"}, "ALK6(h)": {"biological_target": "ALK6(h) (Homo sapiens, UniProt O00238)", "test": "Kinase Profiler", "type": "biochemical", "quoted_text": "as §1"}, "ZIPK(h)": {"biological_target": "ZIPK(h) (Homo sapiens, UniProt O43293)", "test": "Kinase Profiler", "type": "biochemical", "quoted_text": "as §1"}, "NLK(h)": {"biological_target": "NLK(h) (Homo sapiens, UniProt Q9UBE8)", "test": "Kinase Profiler", "type": "biochemical", "quoted_text": "as §1"}, "[4]": {"tested_on": "GABAA, Ro-15-1788, Hippocampus", "test": "Safety screen", "type": "binding, rat", "quoted_text": "as §3"}, "PKCθ(h)": {"biological_target": "PKCθ(h) (Homo sapiens, UniProt Q04759)", "sequence (Q04759 whole entry)": "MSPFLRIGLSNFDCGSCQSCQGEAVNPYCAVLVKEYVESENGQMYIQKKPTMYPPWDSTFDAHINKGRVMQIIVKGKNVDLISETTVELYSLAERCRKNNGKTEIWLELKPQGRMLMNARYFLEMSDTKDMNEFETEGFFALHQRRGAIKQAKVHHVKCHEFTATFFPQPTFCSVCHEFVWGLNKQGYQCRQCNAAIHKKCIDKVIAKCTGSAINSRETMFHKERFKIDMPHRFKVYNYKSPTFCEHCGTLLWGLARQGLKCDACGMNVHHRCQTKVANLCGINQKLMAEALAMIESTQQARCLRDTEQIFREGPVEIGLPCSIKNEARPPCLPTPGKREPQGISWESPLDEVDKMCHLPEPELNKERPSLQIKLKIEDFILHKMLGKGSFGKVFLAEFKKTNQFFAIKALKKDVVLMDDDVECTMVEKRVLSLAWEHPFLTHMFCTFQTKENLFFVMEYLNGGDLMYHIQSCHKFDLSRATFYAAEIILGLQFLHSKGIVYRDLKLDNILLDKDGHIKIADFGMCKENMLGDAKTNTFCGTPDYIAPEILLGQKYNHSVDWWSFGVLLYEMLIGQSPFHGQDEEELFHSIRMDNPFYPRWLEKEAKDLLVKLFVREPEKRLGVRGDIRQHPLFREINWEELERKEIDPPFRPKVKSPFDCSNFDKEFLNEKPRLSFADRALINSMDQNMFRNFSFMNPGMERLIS", "test": "Kinase Profiler", "type": "biochemical", "quoted_text": "as §1"}, "AAK1(h)": {"biological_target": "AAK1(h) (Homo sapiens, UniProt Q2M2I8)", "test": "Kinase Profiler", "type": "biochemical", "quoted_text": "as §1"}, "EphA2(h)": {"biological_target": "EphA2(h) (Homo sapiens, UniProt P29317)", "test": "Kinase Profiler", "type": "biochemical", "quoted_text": "as §2"}}}
{"smiles": "COc1ccc(OC)c(NS(=O)(=O)c2ccc(NC(=O)CCSc3ccc(C)cc3)cc2)c1", "note": "[Compound A41]", "values": [{"measurement": "Activity(%)", "setting": "CHK2(R145W)(h)", "value": 92, "unit": "%"}, {"measurement": "% inh.", "setting": "[1]", "value": 14, "unit": "%"}, {"measurement": "Activity(%)", "setting": "OSR1(h)", "value": 103, "unit": "%"}, {"measurement": "% Cytotox Cell Numbers", "setting": "CHO; - S9, 1.3E-04 M", "value": 64.6, "unit": "%"}, {"measurement": "% Cytotox Index CBPI", "setting": "CHO; - S9, 1.3E-04 M", "value": 72.8, "unit": "%"}, {"measurement": "% Micronucleated Cells", "setting": "CHO; - S9, 1.3E-04 M", "value": 13.39, "unit": "%"}, {"measurement": "% Cytotox Cell Numbers", "setting": "CHO; - S9, 1.6E-05 M", "value": 26.4, "unit": "%"}, {"measurement": "% Cytotox Index CBPI", "setting": "CHO; - S9, 1.6E-05 M", "value": -23.9, "unit": "%"}, {"measurement": "% Micronucleated Cells", "setting": "CHO; - S9, 1.6E-05 M", "value": 2.04, "unit": "%"}, {"measurement": "% Cytotox Cell Numbers", "setting": "CHO; - S9, 2.5E-04 M", "value": 73.6, "unit": "%"}, {"measurement": "% Cytotox Index CBPI", "setting": "CHO; - S9, 2.5E-04 M", "value": 73.8, "unit": "%"}, {"measurement": "% Micronucleated Cells", "setting": "CHO; - S9, 2.5E-04 M", "value": 14.40, "unit": "%"}, {"measurement": "% Cytotox Cell Numbers", "setting": "CHO; - S9, 3.1E-05 M", "value": 42.0, "unit": "%"}, {"measurement": "% Cytotox Index CBPI", "setting": "CHO; - S9, 3.1E-05 M", "value": 8.1, "unit": "%"}, {"measurement": "% Micronucleated Cells", "setting": "CHO; - S9, 3.1E-05 M", "value": 3.12, "unit": "%"}, {"measurement": "% Cytotox Cell Numbers", "setting": "CHO; - S9, 6.3E-05 M", "value": 52.5, "unit": "%"}, {"measurement": "% Cytotox Index CBPI", "setting": "CHO; - S9, 6.3E-05 M", "value": 65.8, "unit": "%"}, {"measurement": "% Micronucleated Cells", "setting": "CHO; - S9, 6.3E-05 M", "value": 6.96, "unit": "%"}, {"measurement": "% Cytotox Cell Numbers", "setting": "CHO; - S9, 7.8E-06 M", "value": 14.3, "unit": "%"}, {"measurement": "% Cytotox Index CBPI", "setting": "CHO; - S9, 7.8E-06 M", "value": -21.4, "unit": "%"}, {"measurement": "% Micronucleated Cells", "setting": "CHO; - S9, 7.8E-06 M", "value": 1.13, "unit": "%"}, {"measurement": "Activity(%)", "setting": "PI3K (p110a/p85a)(m)", "value": 102, "unit": "%"}, {"measurement": "Activity(%)", "setting": "PI3K (p110b/p85a)(h)", "value": 101, "unit": "%"}, {"measurement": "% inh.", "setting": "[2]", "value": 11, "unit": "%"}, {"measurement": "% inh.", "setting": "Glucocorticoid", "value": 17, "unit": "%"}, {"measurement": "Activity(%)", "setting": "CSK(h)", "value": 119, "unit": "%"}, {"measurement": "Activity(%)", "setting": "IRR(h)", "value": 118, "unit": "%"}, {"measurement": "Activity(%)", "setting": "Plk4(h)", "value": 104, "unit": "%"}, {"measurement": "Activity(%)", "setting": "STK32A(h)", "value": 100, "unit": "%"}, {"measurement": "Activity(%)", "setting": "PhKγ2(h)", "value": 98, "unit": "%"}, {"measurement": "Activity(%)", "setting": "Blk(h)", "value": 99, "unit": "%"}, {"measurement": "Activity(%)", "setting": "JAK1(h)", "value": 99, "unit": "%"}, {"measurement": "Activity(%)", "setting": "CDK1/cyclinB(h)", "value": 96, "unit": "%"}, {"measurement": "Activity(%)", "setting": "Rsk4(h)", "value": 128, "unit": "%"}, {"measurement": "% inh.", "setting": "[3]", "value": 56, "unit": "%"}, {"measurement": "Activity(%)", "setting": "JAK2(h)", "value": 114, "unit": "%"}, {"measurement": "Activity(%)", "setting": "PDHK2(h)", "value": 96, "unit": "%"}, {"measurement": "Activity(%)", "setting": "WNK3(h)", "value": 101, "unit": "%"}, {"measurement": "Activity(%)", "setting": "EGFR(L861Q)(h)", "value": 107, "unit": "%"}, {"measurement": "Activity(%)", "setting": "PKCμ(h)", "value": 104, "unit": "%"}, {"measurement": "Activity(%)", "setting": "Pim-3(h)", "value": 101, "unit": "%"}, {"measurement": "Activity(%)", "setting": "CDK6/cyclinD3(h)", "value": 111, "unit": "%"}, {"measurement": "Activity(%)", "setting": "MKK3(h)", "value": 117, "unit": "%"}, {"measurement": "Activity(%)", "setting": "MLK2(h)", "value": 109, "unit": "%"}, {"measurement": "Activity(%)", "setting": "TRB2(h)", "value": 104, "unit": "%"}, {"measurement": "Activity(%)", "setting": "TrkC(h)", "value": 104, "unit": "%"}, {"measurement": "Activity(%)", "setting": "ALK6(h)", "value": 104, "unit": "%"}, {"measurement": "Activity(%)", "setting": "ZIPK(h)", "value": 103, "unit": "%"}, {"measurement": "Activity(%)", "setting": "NLK(h)", "value": 99, "unit": "%"}, {"measurement": "% inh.", "setting": "[4]", "value": -12, "unit": "%"}, {"measurement": "Activity(%)", "setting": "PKCθ(h)", "value": 114, "unit": "%"}, {"measurement": "Activity(%)", "setting": "AAK1(h)", "value": 105, "unit": "%"}, {"measurement": "Activity(%)", "setting": "EphA2(h)", "value": 98, "unit": "%"}]}
